The Ki is the equilibrium dissociation constant of an inhibitor or competing ligand from its target.

Consider 4 molecules from BindingDB's records for doi:10.1021/jm991049m (University of Camerino, 1999).

Assay [1] in a line: Predicted affinity for imidazoline receptor I2 by three field CoMFA model.
Assay in assay [2]: as above
The source holds these as a separate data set.

Assay in assay [3]: as above
The source holds these as a separate data set.

Structures are written as SMILES.

As to `c1ccc([C@H]2C[C@H]2C2=NCCN2)cc1`, in assay [1], the Ki was 724 nM.

Regarding `c1ccc([C@H]2C[C@@H]2C2=NCCN2)cc1`, the Ki in assay [2] is 251 nM.

Take `c1ccc([C@@H]2C[C@@H]2C2=NCCN2)cc1`: the inhibition constant (Ki) in assay [1] is 331 nM.

As to `c1ccc([C@@H]2C[C@H]2C2=NCCN2)cc1`, the Ki in assay [3] is 23 nM.
